Consider 1 compound from article PMC9124820, “In vitro evaluation of fenfluramine and norfenfluramine as victims of drug interactions” (Pharmacology Research & Perspectives, 2022).

A word on the half-life: it is the time in which the quantity being followed falls by half. In general, microsomal CLint refers to a measure of how fast metabolising enzymes remove a compound, apart from limits set by blood flow.

This data set can be described thus: Metabolic stability and metabolite identity, human intestinal S9 fractions. As to conditions: pH 7.4, 1 µM FFA, human intestine S9 fractions, outside assay detection limits. The class given is in vitro ADME. Here is the method: LC‐MS/MS analyses to assess metabolic stability and identify the transporter substrate were performed using an API 4000 QTRAP mass spectrometer (SCIEX, Framingham, MA) with electrospray ionization in positive mode. Chromatography was performed using an Atlantis dC18 analytical column (100 × 2.1 mm, 5 µm; Waters Corporation, Milford, MA). Mobile phases were 0.2% v/v formic acid in water and 0.2% v/v formic acid in acetonitrile. For metabolic stability experiments, FFA and metabolites were eluted at a flow rate of 0.6 mL/min, with a linear gradient of 20%−80% acetonitrile from 0.30−2.0 min. […] The mass transitions monitored were 232.0 > 159.0 for FFA and 348.0 > 330.0 for 1ʹ‐OH‐midazolam‐d4 internal standard. […]
FFA (1 or 10 µM) was incubated with liver and intestinal S9 fractions (2 mg protein/mL) at 37 ± 1°C in 0.2‐mL incubation mixtures containing potassium phosphate buffer (50 mM, pH 7.4), magnesium chloride (MgCl2) (3 mM), and EDTA (1 mM, pH 7.4), in the presence or absence of a three‐component cofactor mixture (NADPH‐generating system, uridine diphosphate glucuronic acid (UDPGA) [8 mM], and 3’‐phosphoadenosine 5’‐phosphosulfate [0.5 mM]). […] Supernatant fractions were analyzed by LC‐MS/MS.
To characterize substrate loss and metabolic stability, duplicate samples were analyzed by LC‐MS/MS to determine the change in substrate concentration over the incubation period. […]

As for `CCNC(C)Cc1cccc(C(F)(F)F)c1` (racemic) [FFA, (RS)‐ethyl (α‐methyl‐3‐trifluoromethylphenethyl)amine], the half-life at 1 µM is greater than 2 h and the microsomal CLint at 1 µM was less than 2.9 µL/min/mg.
